Patent publication US9422308B2, “Derivatives of docosahexaenoylethanolamide and uses thereof” (The United States of America, as represented by the …, priority 2012, dated 2016)
“And” between values parts separate entries of the source, which are not always exact repeats. Identical values can stand only once. Like-named read-outs stand apart in the source and are kept apart here.

Key:
FAAH KO mice = test: beam walk test after traumatic brain injury by controlled cortical impact; format: in vivo; settings: one-time i.p. 25 mg/kg at 15 min after TBI (CCI), from the day 4 after TBI, FIG. 8
Procedure: For the beam walk test, mice were trained to traverse a narrow beam before injury caused by controlled cortical impact (CCI), and the number of hind foot slips after injury was observed over the course of recovery.
A8 has increased resistance to FAAH in comparison to synaptamide but still does show some susceptibility to hydrolysis by FAAH. The effects of A8 in FAAH KO mice were tested by one-time i.p. administration of A8 (25 mg/kg) at 15 min after traumatic brain injury (TBI) inflicted by controlled cortical impact (CCI).

[1] = pharmacokinetics, plasma and brain, after IP dose in mice; format: in vivo; settings: male C57BL/6 mice
Procedure: Each time point is […], with 11 time points=33 animals. Each time point was done in triplicate (N=3). The brain and plasma from each animal was analyzed.
Formulation preparation: • IP: 5% DMAC+5% Solutol HS15+90% Saline • 50 mg/kg, 10 mL/kg
Analytical method: • Instrument: LCMSMS-6 (Agilent 6410, triple quadrupole) • Matrix: Mouse plasma and brain homogenate • Analyte(s): NCGC00248435-03 • Internal standard(s): Diclofenac • MS conditions: Positive, ESI • MRM detection • NCGC00248435-03: [M+H]+m/z 400.3→72.2 • Diclofenac: [M+H]+m/z 296.0→214.0
For plasma samples: An aliquot of 30 μL plasma sample was added with 100 μL ACN (including Diclofenac, 50 ng/mL) for protein precipitation. The mixture was vortexed for 2 min and centrifuged at 12000 rpm for 5 min. The 8 μL supernatant was injected into LC-MS/MS for analysis.
For brain samples: Brain sample was homogenized for 2 min with 3 volumes (v/w) of homogenizing solution. An aliquot of 30 μL brain homogenate sample was added with 100 μL ACN (including Diclofenac, 50 ng/mL) for protein precipitation. The mixture was vortexed for 2 min and centrifuged at 12000 rpm for 5 min. The 8 μL supernatant was injected into LC-MS/MS for analysis.
The IP dosing solution was prepared in 5% DMAC+5% SolutolHS15+90% Saline. Brain was homogenized with 3 volumes (v/w) of PBS (pH7.4) and then analyzed with LC-MS/MS. The Brain concentration was corrected with a dilution factor of 4 as following: Brain concentration=Brain homogenate conc.×4, assuming 1 g wet brain equals to 1 mL. BQL=Below quantifiable limit of 1 ng/mL for NCGC00248435-03 in male C57BL/6 plasma and brain homogenate samples. NA=Not available.

With CC/C=C\C/C=C\C/C=C\C/C=C\C/C=C\C/C=C\CCC(=O)NCC(C)(C)O [Compound 1, (4Z,7Z,10Z,13Z,16Z,19Z)—N-(2-hydroxy-2-methylpropyl)docosa-4,7,10,13,16,19-hexaenamide] the “TBI-induced behavioral deficit (beam walk test, hind foot slips)” value (FAAH KO mice) was “significant improvement”, the “clinical observation post dose” value ([1]; IP 50 mg/kg, all animals) was “Slight mobility reduction” and the “duration of mobility reduction post dose” value ([1]; IP 50 mg/kg, all animals) was 1 h. For the same molecule, the “brain concentration Dose Normalized Mean” value ([1]; brain, 0.083 hr, IP 50 mg/kg) was 0.024, the “brain Concentration Individual” value ([1]; brain, 0.083 hr, IP 50 mg/kg, 3 animals, listed as NCGC00248435-03, 50 mg/kg) was 310 ng/g and 551 ng/g and the “brain concentration Dose Normalized Mean” value ([1]; brain, 0.25 hr, IP 50 mg/kg) was 0.054. The “brain Concentration Individual” value ([1]; brain, 0.25 hr, IP 50 mg/kg, 3 animals, listed as NCGC00248435-03, 50 mg/kg) was 1081 ng/g and 1330 ng/g, the “brain concentration Dose Normalized Mean” value ([1]; brain, 0.5 hr, IP 50 mg/kg) was 0.236 and the “brain Concentration Individual” value ([1]; brain, 0.5 hr, IP 50 mg/kg, 3 animals, listed as NCGC00248435-03, 50 mg/kg) was 5013 ng/g and 3992 ng/g. For the same molecule, the “brain concentration Dose Normalized Mean” value ([1]; brain, 1 hr, IP 50 mg/kg) was 0.152, the “brain Concentration Individual” value ([1]; brain, 1 hr, IP 50 mg/kg, 3 animals, listed as NCGC00248435-03, 50 mg/kg) was 2086 ng/g and 3367 ng/g and the “brain concentration Dose Normalized Mean” value ([1]; brain, 2 hr, IP 50 mg/kg) was 0.089. The “brain Concentration Individual” value ([1]; brain, 2 hr, IP 50 mg/kg, 3 animals, listed as NCGC00248435-03, 50 mg/kg) was 2463 ng/g and 1494 ng/g, the “brain concentration Dose Normalized Mean” value ([1]; brain, 3 hr, IP 50 mg/kg) was 0.075 and the “brain Concentration Individual” value ([1]; brain, 3 hr, IP 50 mg/kg, 3 animals, listed as NCGC00248435-03, 50 mg/kg) was 1410 ng/g and 1152 ng/g. For the same molecule, the “brain concentration Dose Normalized Mean” value ([1]; brain, 4 hr, IP 50 mg/kg) was 0.017, the “brain Concentration Individual” value ([1]; brain, 4 hr, IP 50 mg/kg, 3 animals, listed as NCGC00248435-03, 50 mg/kg) was 234 ng/g and 585 ng/g and 179 ng/g and the “brain concentration Dose Normalized Mean” value ([1]; brain, 8 hr, IP 50 mg/kg) was 0.001. The “brain Concentration Individual” value ([1]; brain, 8 hr, IP 50 mg/kg, 3 animals, listed as NCGC00248435-03, 50 mg/kg) was 13.5 ng/g, the “brain concentration Dose Normalized Mean” value ([1]; brain, 12 hr, IP 50 mg/kg) was “BQL (Below quantifiable limit of 1 ng/mL for NCGC00248435-03 in male C57BL/6 plasma and brain homogenate samples)” and the “brain concentration Mean” value ([1]; brain, 12 hr, IP 50 mg/kg) was “BQL (Below quantifiable limit of 1 ng/mL for NCGC00248435-03 in male C57BL/6 plasma and brain homogenate samples)”. For the same molecule, the “brain Concentration Individual” value ([1]; brain, 12 hr, IP 50 mg/kg, 3 animals) was “BQL (Below quantifiable limit of 1 ng/mL for NCGC00248435-03 in male C57BL/6 plasma and brain homogenate samples)”, the “brain concentration Dose Normalized Mean” value ([1]; brain, 24 hr, IP 50 mg/kg) was “BQL (Below quantifiable limit of 1 ng/mL for NCGC00248435-03 in male C57BL/6 plasma and brain homogenate samples)” and the “brain concentration Mean” value ([1]; brain, 24 hr, IP 50 mg/kg) was “BQL (Below quantifiable limit of 1 ng/mL for NCGC00248435-03 in male C57BL/6 plasma and brain homogenate samples)”. The “brain Concentration Individual” value ([1]; brain, 24 hr, IP 50 mg/kg, 3 animals) was “BQL (Below quantifiable limit of 1 ng/mL for NCGC00248435-03 in male C57BL/6 plasma and brain homogenate samples)”, the “AUCbrain(AUClast)” value ([1]; brain, IP 50 mg/kg) was 8458 ng·h/mL and the concentration at 0.083 hr ([1]; male, C57BL/6, mouse, brain, ip, 50 mg/kg, brain, 0.083 hr, 3 animals, read-out: brain Concentration Individual) was 554 ng/g. The concentration at 0.083 hr ([1]; male, C57BL/6, mouse, brain, ip, 50 mg/kg, brain, 0.083 hr, read-out: brain concentration Mean) was 472 ng/g and 1.18 µM, the concentration at 0.25 hr ([1]; male, C57BL/6, mouse, brain, ip, 50 mg/kg, brain, 0.25 hr, 3 animals, read-out: brain Concentration Individual) was 853 ng/g and the concentration at 0.25 hr ([1]; male, C57BL/6, mouse, brain, ip, 50 mg/kg, brain, 0.25 hr, read-out: brain concentration Mean) was 1090 ng/g and 2.72 µM. For the same molecule, the concentration at 0.5 hr ([1]; male, C57BL/6, mouse, brain, ip, 50 mg/kg, brain, 0.5 hr, 3 animals, read-out: brain Concentration Individual) was 5110 ng/g, the concentration at 0.5 hr ([1]; male, C57BL/6, mouse, brain, ip, 50 mg/kg, brain, 0.5 hr, read-out: brain concentration Mean) was 4710 ng/g and 11.8 µM and the concentration at 1 hr ([1]; male, C57BL/6, mouse, brain, ip, 50 mg/kg, brain, 1 hr, 3 animals, read-out: brain Concentration Individual) was 3650 ng/g. The concentration at 1 hr ([1]; male, C57BL/6, mouse, brain, ip, 50 mg/kg, brain, 1 hr, read-out: brain concentration Mean) was 3040 ng/g and 7.59 µM, the concentration at 2 hr ([1]; male, C57BL/6, mouse, brain, ip, 50 mg/kg, brain, 2 hr, 3 animals, read-out: brain Concentration Individual) was 1380 ng/g and the concentration at 2 hr ([1]; male, C57BL/6, mouse, brain, ip, 50 mg/kg, brain, 2 hr, read-out: brain concentration Mean) was 1780 ng/g and 4.45 µM. For the same molecule, the concentration at 3 hr ([1]; male, C57BL/6, mouse, brain, ip, 50 mg/kg, brain, 3 hr, 3 animals, read-out: brain Concentration Individual) was 1930 ng/g, the concentration at 3 hr ([1]; male, C57BL/6, mouse, brain, ip, 50 mg/kg, brain, 3 hr, read-out: brain concentration Mean) was 1500 ng/g and 3.75 µM and the concentration at 4 hr ([1]; male, C57BL/6, mouse, brain, ip, 50 mg/kg, brain, 4 hr, read-out: brain concentration Mean) was 333 ng/g and 833 nM. The concentration at 8 hr ([1]; male, C57BL/6, mouse, brain, ip, 50 mg/kg, brain, 8 hr, 3 animals, read-out: brain Concentration Individual) was 8.94 ng/g, the concentration at 8 hr ([1]; male, C57BL/6, mouse, brain, ip, 50 mg/kg, brain, 8 hr, read-out: brain concentration Mean) was 12 ng/g and 30 nM and the concentration at 0.083 hr ([1]; male, C57BL/6, mouse, plasma, ip, 50 mg/kg, plasma, 0.083 hr, 3 animals, read-out: plasma Concentration Individual) was 2090 ng/mL. For the same molecule, the concentration at 0.083 hr ([1]; male, C57BL/6, mouse, plasma, ip, 50 mg/kg, plasma, 0.083 hr, read-out: plasma concentration Mean) was 2620 ng/mL and 6.56 µM and the concentration at 0.25 hr ([1]; male, C57BL/6, mouse, plasma, ip, 50 mg/kg, plasma, 0.25 hr, 3 animals, read-out: plasma Concentration Individual) was 6550 ng/mL.
